The numbers were not newly measured in PubChem BioAssay AID1259409 (Chemical Carcinogenesis Research Information System (CCRIS), 2018), which cites them from elsewhere.

This series concerns rodent chemically induced tumor inhibition, incidence and multiplicity. The series can be described thus: CCRIS tumor inhibitor studies. Particulars: Promoter: NONE USED.

Each structure is given as a SMILES string.

As for `C[C@]12CC[C@H](O)CC1=CC[C@@H]1[C@@H]2CC[C@]2(C)C(=O)CC[C@@H]12`, the “tumour outcome (control, treated, inhibition, significance)” value is 38%, 50%, -32%, not calculated (Carcinogen: 1,2-DIMETHYLHYDRAZINE, 540-73-8, Dose [Inhibitor]: 0.6% IN DIET BEGINNING 2 WK PRIOR TO 1ST CARCINOGEN DOSE FOR DURATION OF EXPERIMENT (STUDY DURATION: 42 WK), Route [Inhibitor]: ORAL, Species: MOUSE, Strain/Sex: BALB/C/FEMALE, Target Tissue: Type of Lesion: ANUS: SQUAMOUS CELL CARCINOMA, FIBROSARCOMA, Dose [Carcinogen]: 21 MG/KG 1/WK FOR 20 WK); 26/151 (17%), 0/141 (0%), 100%, p<0.001 (Carcinogen: 1,2-DIMETHYLHYDRAZINE, 540-73-8, Dose [Inhibitor]: 0.6% IN DIET BEGINNING 2 WK PRIOR TO 1ST CARCINOGEN DOSE FOR DURATION OF EXPERIMENT (STUDY DURATION: 42 WK), Route [Inhibitor]: ORAL, Species: MOUSE, Strain/Sex: BALB/FEMALE, Target Tissue: Type of Lesion: ANUS: SQUAMOUS CELL CARCINOMA, FIBROSARCOMA, Dose [Carcinogen]: 21 MG/KG 1/WK FOR 20 WK); 28/28 (100%), 20/23 (87%), 13%, not calculated (Carcinogen: 7,12-DIMETHYLBENZ[A]ANTHRACENE, 57-97-6, Dose [Inhibitor]: 0.6% IN DIET BEGINNING 9 D POST CARCINOGEN DOSE (STUDY DURATION: 14 WK AFTER AGENT TREATMENT), Route [Inhibitor]: ORAL, Species: MOUSE, Strain/Sex: STRAIN-A/FEMALE, Target Tissue: Type of Lesion: LUNG: TUMOR, Dose [Carcinogen]: 0.5 MG IN 0.2 ML SESAME OIL ONCE); 14/28 (50%), 5/26 (19%), 62%, p<0.001 (Carcinogen: 7,12-DIMETHYLBENZ[A]ANTHRACENE, 57-97-6, Dose [Inhibitor]: 100 UG IN 0.2 ML ACETONE 1 HR PRIOR TO EACH CARCINOGEN DOSE (STUDY DURATION: 290 D), Route [Inhibitor]: DERMAL, Species: MOUSE, Strain/Sex: CD-1/FEMALE, Target Tissue: Type of Lesion: SKIN: CARCINOMA, Dose [Carcinogen]: 200 NMOL AT 6-7 WK OF AGE THEN 100 NMOL 1/WK 2 WK LATER); 14/28 (50%), 3/27 (11%), 78%, p<0.001 (Carcinogen: 7,12-DIMETHYLBENZ[A]ANTHRACENE, 57-97-6, Dose [Inhibitor]: 400 UG IN 0.2 ML ACETONE 1 HR PRIOR TO EACH CARCINOGEN DOSE (STUDY DURATION: 290 D), Route [Inhibitor]: DERMAL, Species: MOUSE, Strain/Sex: CD-1/FEMALE, Target Tissue: Type of Lesion: SKIN: CARCINOMA, Dose [Carcinogen]: 200 NMOL AT 6-7 WK OF AGE THEN 100 NMOL 1/WK 2 WK LATER); 10/15 (67%), 7/15 (47%), 30%, not significant (Carcinogen: AZOXYMETHANE, 25843-45-2, Dose [Inhibitor]: 0, 0.5% DIET BEGINNING 1 DAY AFTER LAST CARCINOGEN DOSE AND CONTINUING FOR DURATION OF STUDY (STUDY DURATION: 18 WK), Route [Inhibitor]: ORAL, Species: RAT, Strain/Sex: F344/MALE, Target Tissue: Type of Lesion: COLON: TUMOR, Dose [Carcinogen]: 10 MG/KG 1/WK FOR 10 WK). For the same molecule, the “tumour outcome (control, treated, inhibition, significance)” value (Carcinogen: AZOXYMETHANE, 25843-45-2, Dose [Inhibitor]: 0, 0.5% DIET BEGINNING 1 DAY AFTER LAST CARCINOGEN DOSE AND CONTINUING FOR DURATION OF STUDY (STUDY DURATION: 18 WK), Route [Inhibitor]: ORAL, Species: RAT, Strain/Sex: F344/MALE, Target Tissue: Type of Lesion: SMALL INTESTINE: TUMOR, Dose [Carcinogen]: 10 MG/KG 1/WK FOR 10 WK) is 10/15 (67%), 8/15 (53%), 21%, not significant.
